One assay concerns the target CDK4/Cyclin D1 (Homo sapiens (Human), UniProt P11802). Put plainly: CDK4/CyclinD1 enzymatic activity assay (TR-FRET). Type of assay: biochemical. The settings on record: ATP 2 mM, read-out: CDK4_D1 IC50. On the procedure: CDK4/CyclinD1 Enzymatic Activity Assay
The inhibitory activity of compounds was evaluated in vitro using TR-FRET assay with white 384-well low volume microplate (Greiner Bio-One). CDK4/Cyclin D1 catalyzed phosphorylation of peptide in the presence and absence of compounds was measured. IC50 determination. Recombinant protein complex CDK4/Cyclin D1, expressed from insect cell, was purchased from ProQinase. Testing compounds were dissolved in DMSO at 0.1 mM and tested in 9-dose IC50 mode. The reaction mixture was prepared by mixing CDK4/CyclinD1 (1 nM final), ULight-4E-BP1 (100 nM final, Perkinelmer, TRF0128-D), and ATP (2 mM final) in assay buffer (20 mM of HEPES pH 7.4, 1 mM of EGTA, 0.05% BSA, 0.005% Tween 20, and 1 mM TCEP). The compound of interest in DMSO was added to each well in 3-fold serial dilution by dispenser (TECAN D300E). After 20 minutes preincubation at room temperature, MgCl2 (10 mM final) was added to initiate the reaction. Following a 60 minutes incubation at 37° C., the reaction was stopped by addition of 2 μL of quenching buffer consisting of Lance detection buffer (Perkinelmer CR97-100C), 2 nM LANCE Ultra Europium-anti-P-4E-BP1 (Perkinelmer, TRF0216-D), 10 mM EDTA, and incubate at room temperature for additional 60 minutes in dark. The reaction signal was measured by Envision multimode plate reader (PerkinElmer, 2102-0010). IC50 values were determined by fitting the data to the standard 4 parameters with Hill Slope using GraphPad Prism software.
On the technique in general: TR-FRET usually uses a lanthanide donor and a delayed reading to cut background.

Assay [1] relates to MCF7 adenocarcinoma cell line. Nature of the assay: Cell proliferation studies in MCF7 cells (ATP-Lite, 10 days). It is filed as cell-based. The settings on record: read-out: PROLIFERATION_CTG_MCF7 IC50. On the procedure:
Cell Proliferation Studies in MCF7 Cells
Cell proliferation studies were conducted in MCF7 adenocarcinoma cell line. Cells were maintained in DMEM (Coming, Catalog #: 10-013-CV) supplemented with 10% v/v FBS (Gibco, Catalog #: 26140-079), 1% v/v Penicillin Streptomycin (Gibco, Catalog #15140-122) Cells were seeded in 384-well plates at a density of 100 or 200 cells/well. Compounds dissolved in DMSO were plated in quadruplicate using a digital dispenser (D300E, Tecan) and tested on a 9-point 3-fold serial dilution. Cells were incubated for 10 days in a 37° C. active humidified incubator at 5% CO2. A media exchange and second compound addition were performed on day 5. Cell viability was measured using the ATP-Lite 1-Step Luminescence reagent (Perkin Elmer, Catalog #: 6016731) as per manufacturer's instructions. Luminescence signal was measured with a multimode plate reader (Envision 2105, Perkin Elmer). Raw data files were imported to Dotmatics Screening Ultra for IC50 analysis. Luminescence values were normalized to both background and DMSO controls to obtain a percentage of viable cells relative to DMSO vehicle control.

Each structure is given as a SMILES string. Where two headings read alike, the source gives them in different places.

Chain of CDK4/Cyclin D1 (P11802 whole entry): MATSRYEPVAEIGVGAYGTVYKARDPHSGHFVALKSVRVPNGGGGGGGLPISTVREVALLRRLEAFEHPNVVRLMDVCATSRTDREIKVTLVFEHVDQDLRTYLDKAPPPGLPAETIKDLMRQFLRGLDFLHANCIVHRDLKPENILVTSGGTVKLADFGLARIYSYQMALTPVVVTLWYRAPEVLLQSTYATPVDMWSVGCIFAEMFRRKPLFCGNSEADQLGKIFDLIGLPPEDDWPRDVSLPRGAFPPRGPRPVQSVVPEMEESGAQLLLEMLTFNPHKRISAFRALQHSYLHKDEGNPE
Chain of CDK4/Cyclin D1 (P24385 whole entry partner): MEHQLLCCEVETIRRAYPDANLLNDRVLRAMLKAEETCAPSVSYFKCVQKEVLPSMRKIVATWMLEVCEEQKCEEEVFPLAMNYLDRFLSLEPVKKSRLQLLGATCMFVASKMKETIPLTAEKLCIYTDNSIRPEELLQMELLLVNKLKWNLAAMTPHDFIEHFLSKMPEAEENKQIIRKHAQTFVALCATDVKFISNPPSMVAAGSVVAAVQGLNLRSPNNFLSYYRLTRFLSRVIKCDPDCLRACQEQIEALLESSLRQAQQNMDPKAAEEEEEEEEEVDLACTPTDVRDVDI

On to `Fc1cnc(Nc2ccc(N3CCOCC3)cn2)nc1-c1cc2nccc(C3CCCC3)c2s1` [Example 40, 4-(7-Cyclopentylthieno[3,2-b]pyridin-2-yl)-5-fluoro-N-(5-morpholinopyridin-2-yl)pyrimidin-2-amine], for which the IC50 was 20 to 200 nM on CDK4/Cyclin D1 and over 2000 nM in assay [1] (Homo sapiens, 240 h).
In the same order, the values of `Fc1cnc(Nc2ccc(N3CCC(F)(F)C3)cn2)nc1-c1cc2nccc(C3CCCC3)c2s1` [Example 41, 4-(7-Cyclopentylthieno[3,2-b]pyridin-2-yl)-N-[5-(3,3-difluoropyrrolidin-1-yl)pyridin-2-yl]-5-fluoropyrimidin-2-amine] are 200 to 2000 nM and over 2000 nM.
`Fc1cnc(Nc2ccc(N3CCOCC3)cn2)nc1-c1cc2c(C3CCCC3)ccnc2s1` [Example 42, 4-(4-Cyclopentylthieno[2,3-b]pyridin-2-yl)-5-fluoro-N-(5-morpholin-4-ylpyridin-2-yl)pyrimidin-2-amine]: the IC50 is 200 to 2000 nM at CDK4/Cyclin D1 and over 2000 nM in assay [1] (Homo sapiens, 240 h).
Take `CN1CCC(c2ccc(Nc3ncc(F)c(-c4cc5c(C6CCCC6)ccnc5s4)n3)nc2)CC1` [Example 43, 4-(4-Cyclopentylthieno[2,3-b]pyridin-2-yl)-5-fluoro-N-(5-(1-methylpiperidin-4-yl)pyridin-2-yl)pyrimidin-2-amine]: the IC50 lay within 20 to 200 nM on CDK4/Cyclin D1 and 200 to 2000 nM in assay [1] (Homo sapiens, 240 h).
In the same order, the values of `CCN1CCN(c2ccc(Nc3ncc(F)c(-c4cc5c(C6CCCC6)ccnc5s4)n3)nc2)CC1` [Example 44, 4-(4-Cyclopentylthieno[2,3-b]pyridin-2-yl)-N-[5-(4-ethylpiperazin-1-yl)pyridin-2-yl]-5-fluoropyrimidin-2-amine] are 20 to 200 nM and 200 to 2000 nM.
As to `CN1CCN(c2ccc(Nc3ncc(F)c(-c4cc5c(C6CCCC6)ccnc5s4)n3)nc2)CC1` [Example 45, 4-(4-Cyclopentylthieno[2,3-b]pyridin-2-yl)-5-fluoro-N-[5-(4-methylpiperazin-1-yl)pyridin-2-yl]pyrimidin-2-amine], the IC50 at CDK4/Cyclin D1 was 20 to 200 nM; in assay [1] (Homo sapiens, 240 h) it was 200 to 2000 nM.
Turning to `Fc1cnc(Nc2ccc(N3CCNCC3)cn2)nc1-c1cc2c(C3CCCC3)ccnc2s1` [Example 46, 4-(4-Cyclopentylthieno[2,3-b]pyridin-2-yl)-5-fluoro-N-(5-piperazin-1-ylpyridin-2-yl)pyrimidin-2-amine], the IC50 at CDK4/Cyclin D1 lay in the range of 20 to 200 nM; in assay [1] (Homo sapiens, 240 h), 200 to 2000 nM.
The matching figures for `CCN1CC2(C1)CN(c1ccc(Nc3ncc(F)c(-c4cc5c(C6CCCC6)ccnc5s4)n3)nc1)C2` [Example 47, 4-(4-Cyclopentylthieno[2,3-b]pyridin-2-yl)-N-[5-(6-ethyl-2,6-diazaspiro[3.3]heptan-2-yl)pyridin-2-yl]-5-fluoropyrimidin-2-amine]: 20 to 200 nM and 200 to 2000 nM.
The matching figures for `Cc1c(-c2nc(Nc3ccc(N4CCN(C)CC4)cn3)ncc2F)sc2c(C3CCCC3)nccc12` [Example 48, 4-(7-Cyclopentyl-3-methylthieno[2,3-c]pyridin-2-yl)-5-fluoro-N-(5-(4-methylpiperazin-1-yl)pyridin-2-yl)pyrimidin-2-amine]: 200 to 2000 nM and 200 to 2000 nM.
Regarding `Cc1c(-c2nc(Nc3ccc(C4CCN(C)CC4)cn3)ncc2F)sc2c(C3CCCC3)ncnc12` [Example 49, 4-(4-Cyclopentyl-7-methylthieno[3,2-d]pyrimidin-6-yl)-5-fluoro-N-(5-(1-methylpiperidin-4-yl)pyridin-2-yl)pyrimidin-2-amine], the IC50 at CDK4/Cyclin D1 fell in the range of 200 to 2000 nM; in assay [1] (Homo sapiens, 240 h), 200 to 2000 nM.
As to `CCN1CC2(C1)CN(c1ccc(Nc3ncc(F)c(-c4sc5c(C(C)C)nn(C)c(=O)c5c4C)n3)nc1)C2` [Example 63, 2-(2-((5-(6-Ethyl-2,6-diazaspiro[3.3]heptan-2-yl)pyridin-2-yl)amino)-5-fluoropyrimidin-4-yl)-7-isopropyl-3,5-dimethylthieno[2,3-d]pyridazin-4(5H)-one], the IC50 is 20 to 200 nM at CDK4/Cyclin D1 and 200 to 2000 nM in assay [1] (Homo sapiens, 240 h).
`Cc1c(-c2nc(Nc3ccc(N4CCN5CCC4CC5)cn3)ncc2F)sc2c(C(C)C)cn(C)c(=O)c12` [Example 83, 2-(2-((5-(1,4-Diazabicyclo[3,2.2]nonan-4-yl)pyridin-2-yl)amino)-5-fluoropyrimidin-4-yl)-7-isopropyl-3,5-dimethylthieno[3,2-c]pyridin-4(5H)-one]: the IC50 at CDK4/Cyclin D1 was at most 20 nM; in assay [1] (Homo sapiens, 240 h), 20 to 200 nM.
Turning to `CC(C)c1cn(C)c(=O)c2cc(-c3ccnc(Nc4ccc(C5CCN(C)CC5)cn4)n3)sc12` [Example 96, 7-Isopropyl-5-methyl-2-(2-((5-(1-methylpiperidin-4-yl)pyridine-2-yl)amino)pyrimidin-4-yl)thieno[3,2-c]pyridin-4(5H)-one], the IC50 on CDK4/Cyclin D1 is 20 to 200 nM; in assay [1] (Homo sapiens, 240 h), 200 to 2000 nM.
On to `Cc1c(-c2nc(Nc3ccc(C4CC[N+](C)([O-])CC4)cn3)ncc2F)sc2c(C(C)C)cn(C)c(=O)c12` (stereo not drawn) [Example 98, 4-(6-((5-Fluoro-4-(7-isopropyl-3,5-dimethyl-4-oxo-4,5-dihydrothieno[3,2-c]pyridin-2-yl)pyrimidin-2-yl)amino)pyridin-3-yl)-1-methylpiperidine 1-oxide], for which the IC50 was at most 20 nM at CDK4/Cyclin D1 and 20 to 200 nM in assay [1] (Homo sapiens, 240 h).
For `CCN1CCN(Cc2ccc(Nc3ncc(F)c(-c4sc5c(C(C)C)[nH]nc5c4C)n3)nc2)CC1` [Example 100, N-(5-((4-Ethylpiperazin-1-yl)methyl)pyridin-2-yl)-5-fluoro-4-(3-isopropyl-6-methyl-2H-thieno[3,2-c]pyrazol-5-yl)pyrimidin-2-amine], the IC50 fell in the range of 20 to 200 nM at CDK4/Cyclin D1 and 200 to 2000 nM in assay [1] (Homo sapiens, 240 h).
In the same order, the values of `CCN1CC2(C1)CN(c1ccc(Nc3ncc(F)c(-c4sc5c(C(C)(C)OC)n(C)nc5c4C)n3)nc1)C2` [Example 105, N-(5-(6-Ethyl-2,6-diazaspiro[3.3]heptan-2-yl)pyridin-2-yl)-5-fluoro-4-(3-(2-methoxypropan-2-yl)-2,6-dimethyl-2H-thieno[3,2-c]pyrazol-5-yl)pyrimidin-2-amine] are at most 20 nM and 20 to 200 nM.
Turning to `CCN1CC2(C1)CN(c1ccc(Nc3ncc(F)c(-c4sc5c(nc(N(C)C)n5C(C)C)c4C)n3)nc1)C2` [Example 111, 5-(2-((5-(6-Ethyl-2,6-diazaspiro[3.3]heptan-2-yl)pyridin-2-yl)amino)-5-fluoropyrimidin-4-yl)-3-isopropyl-N,N,6-trimethyl-3H-thieno[2,3-d]imidazol-2-amine], the IC50 at CDK4/Cyclin D1 lay within 20 to 200 nM; in assay [1] (Homo sapiens, 240 h), 20 to 200 nM.
Take `Cc1c(-c2nc(Nc3ccc(C4CN(C)CCO4)cn3)ncc2F)sc2c1nc(C)n2C(C)C` (stereo not drawn) [Example 115, 5-Fluoro-4-(3-isopropyl-2,6-dimethyl-3H-thieno[2,3-d]imidazol-5-yl)-N-(5-(4-methylmorpholin-2-yl)pyridin-2-yl)pyrimidin-2-amine]: the IC50 at CDK4/Cyclin D1 was at most 20 nM; in assay [1], 20 to 200 nM.

The values are drawn from patent publication US11685744B2, “CDK inhibitors and their use as pharmaceuticals” (Prelude Therapeutics, Incorporated, priority 2020, dated 2023).
